Values quoted from earlier work, collected in patent US10537528B2 (The Regents of the University of California, priority 2015, dated 2020).

How the values were obtained:
[1] = system: obese individuals with NASH; conditions: treated for 4-12 weeks
[2] = system: intracellular cystine (circulating white blood cells)
[3] = system: obese children who had steatosis; conditions: 400-1000 IU/day for 4-10 months

CC(=O)N[C@@H](CS)C(=O)O [N-acetylcysteine]
aminotransferase levels and gamma-GT [1]: improvement | subject body mass index [1]: no reported change

NCCS [cysteamine]
time to observed decrease in leukocyte cystine ([2]; delivery into the small intestine (WO 2007/089670)): within an hour | depletion of intracellular cystine ([2]; taken regularly, measured in circulating white blood cells): up to 90%

vitamin E
mean AST levels after treatment ([3]; decreased from 104±61 IU/L, P<0.002): 33±11 IU/L | mean ALT levels after treatment ([3]; decreased from 175±106 IU/L, P<0.01): 40±26 IU/L
